The values that follow come from US8846937B2, “Mono quaternary ammonium salts and methods for modulating neuronal nicotinic acetylcholine receptors” (University of Kentucky Research Foundation, priority 2006, dated 2014).

Assay [1] addresses T1, Rat Striatal Nicotinic Receptors ([^3H]MLA binding) (Rattus norvegicus, UniProt Q05941).
T1 construct: Whole brain, excluding cortex and cerebellum, was homogenized; from tissue; host or cells: rat brain membranes (whole brain excluding cortex and cerebellum)
In words: Inhibition of [^3H]methyllycaconitine (MLA) binding to brain membranes. As to conditions: for inhibition at 0.1 µM: % inhibition at 100 nM analog, 2.5 nM [^3H]MLA, nonspecific 1 μM MLA (footnote). As to the method:
(§1) Test compounds of Formula (I), representing the mono quaternary nicotine analogs of the present invention, were evaluated to determine the effect of a test compound on nicotine-binding and methyllycaconitine-binding mediated by nicotine acetylcholine receptors.
Homogenate was centrifuged (25,000 g, 15 min, 4° C.). Pellets were resuspended in 20 volumes of buffer and incubated at 37° C., for 10 min, cooled to 4° C. and centrifuged (25,000 g, 15 min, 4° C.). Pellets were resuspended and centrifuged using the same conditions. […] Upon use, final pellets were resuspended in ˜20 volumes of assay buffer. […] A control sample absent test compounds of Formula (I) was also prepared. […] Incubations proceeded for 60 min at a room temperature using 96-well plates, and were terminated by harvesting on Unifilter-96 GF/B filter plates presoaked in 0.5% polyethylenimine, using a Packard FilterMate harvester. After washing 5 times with 350 μl ice-cold assay buffer, the filter plates were dried (60 min, 4° C.), bottom-sealed, and filled with Packard's MicroScint 20 cocktail (40 μl/well). After 60 min, filter plates were top-sealed, and levels of radioactivity were determined using a Packard TopCount. Protein concentrations were determined using the Bradford dye-binding procedure using bovine serum albumin as a standard protein. […]

For assay [2], the system named is nicotinic receptors, NIC-evoked [^3H]DA release from rat striatal slices. The experiment in a line: Inhibition of nicotine-evoked [^3H]dopamine release from superfused rat striatal slices. It counts as cell-based. As to conditions: 1 h, 100 nM analog superfused 60 minutes prior to NIC (10 μM). As to the method:
Rat striatal slices (500 μm thickness, 6-8 mg wet weight) were incubated for 30 minutes in Krebs buffer (118 mM NaCl, 4.7 mM KCl, 1.2 mM MgCl2, 1.0 mM NaH2PO4, 1.3 mM CaCl2, 11.1 mM glucose, 25 mM NaHCO3, 0.11 mM L-ascorbic acid, and 0.004 mM disodium EDTA at pH 7.4, and saturated with 95% O2/5% CO2) in a metabolic shaker at 34° C. Slices were rinsed with 15 mL of fresh buffer, and were incubated for an additional 30 minutes in fresh buffer containing 0.1 μM [^3H]dopamine (DA; 6 slices/3 mL). Subsequently, slices were rinsed with 15 mL of fresh buffer and transferred to a glass superfusion chamber. Slices were superfused (1.0 mL/min) for 60 minutes with Krebs buffer containing nomifensine (10 μM) and pargyline (10 μM), and maintained at 34° C., pH 7.4, with continual aeration (95% O2/5% CO2). Two five minute samples (5 mL each) were collected to determine basal outflow of [^3H]DA. The test compounds of Formula (I) were added to the superfusion buffer after the collection of the second sample, and were maintained in the buffer until 12 consecutive five minute samples were collected. Subsequently, S-(−)-nicotine (10 μM) was added to the buffer, and an additional 12 consecutive five minute samples were collected. At the end of the experiment, each slice was solubilized, and the [^3H]content of the tissue determined.
Radioactivity in the superfusate and tissue samples was determined by liquid scintillation spectroscopy. Fractional release of tritium collected in each sample was divided by the total tritium present in the tissue at the time of sample collection, and the fractional release of tritium collected was expressed as a percentage of total tritium. Basal [^3H]outflow was calculated from the average of the tritium collected in the two five minute samples just before addition of a test compound of Formula (I). The sum of the increase in collected tritium resulting from either exposure to a test compound of Formula (I), or exposure to S(−) nicotine in the absence and presence of a test compound of Formula (I) equaled total [^3H]overflow. [^3H]Overflow was calculated by subtracting the [^3H]outflow during an equivalent period of pre-stimulation from the values in samples collected during and after drug exposure. Inasmuch as the radio-labeled compounds were not separated and identified, the tritium collected in superfusate is referred to as either [^3H]outflow or [^3H]overflow, rather than as [^3H]DA. [^3H]Overflow primarily represents [^3H]DA in the presence of nomifensine and pargyline in the superfusion buffer.
The quaternary analogs of Formula (I) were also evaluated for their ability to inhibit NIC-evoked [^3H]DA release. In these experiments, the striatal slices were superfused for 60 minutes with 100 nM concentration of the quaternary analogs prior to NIC (10 μM) exposure. Antagonist activity was evaluated by comparing the NIC-evoked [^3H]overflow in the absence and presence of the analogs. The relative order of potency of the quaternary analogs of Formula (I) for inhibition of NIC-evoked [^3H]DA release from rat striatal slices is illustrated in Table 1.
^aData are % inhibition at 100 nM concentration of the mono quaternary analogs for at least 1-3 independent experiments; with the exception of when a Ki value in μM is provided, in which case a full concentration effect was evaluated. Specific binding in the [^3H]NIC binding assay is calculated as the difference between the total binding of 3 nM [^3H]NIC and nonspecific binding in the presence of 10 μM cold nicotine. Specific binding for the [^3H]MLA binding assay is calculated as the difference between the total binding of 2.5 nM [^3H]MLA to the receptors alone and its nonspecific binding in the presence of 1 μM cold MLA. Analog-induced inhibition of nicotine-evoked [^3H]DA release is calculated as a percent of that in the absence of the mono quaternary ammonium analog. ND indicates not determined.

The target of assay [3] is T2, Rat Striatal Nicotinic Receptors ([^3H]NIC binding) (Rattus norvegicus, UniProt P09483+P12390).
T2 construct: Whole brain, excluding cortex and cerebellum, was homogenized; from tissue; host or cells: rat brain membranes (whole brain excluding cortex and cerebellum)
The experiment in a line: Inhibition of [^3H]nicotine binding to brain membranes. As to conditions: 3 nM [^3H]NIC; for inhibition at 0.1 µM: % inhibition at 100 nM analog, nonspecific 10 μM nicotine. Here is the method:
as §1
Homogenate was centrifuged (25,000 g, 15 min, 4° C.). Pellets were resuspended in 20 volumes of buffer and incubated at 37° C., for 10 min, cooled to 4° C. and centrifuged (25,000 g, 15 min, 4° C.). Pellets were resuspended and centrifuged using the same conditions. […] Upon use, final pellets were resuspended in ˜20 volumes of assay buffer. Samples (250 μl) contained 100-140 μg of membrane protein, 3 nM [^3H]nicotine or 3 nM [^3H]methyllycaconitine (MLA), and test compounds of Formula (I) (100 nM) in assay buffer containing 50 mM Tris. A control sample absent test compounds of Formula (I) was also prepared. In the [^3H]nicotine-binding assay and [^3H]MLA-binding assay, nonspecific-binding was determined in the presence of 10 μM nicotine and 10 μM MLA, respectively. Incubations proceeded for 60 min at a room temperature using 96-well plates, and were terminated by harvesting on Unifilter-96 GF/B filter plates presoaked in 0.5% polyethylenimine, using a Packard FilterMate harvester. After washing 5 times with 350 μl ice-cold assay buffer, the filter plates were dried (60 min, 4° C.), bottom-sealed, and filled with Packard's MicroScint 20 cocktail (40 μl/well). After 60 min, filter plates were top-sealed, and levels of radioactivity were determined using a Packard TopCount. Protein concentrations were determined using the Bradford dye-binding procedure using bovine serum albumin as a standard protein.
Specific binding in the [^3H]NIC binding assay is calculated as the difference between the total binding of 3 nM [^3H]NIC and nonspecific binding in the presence of 10 μM cold nicotine. […] Analog-induced inhibition of nicotine-evoked [^3H]DA release is calculated as a percent of that in the absence of the mono quaternary ammonium analog. ND indicates not determined.

T2 sequence (P09483 31-630): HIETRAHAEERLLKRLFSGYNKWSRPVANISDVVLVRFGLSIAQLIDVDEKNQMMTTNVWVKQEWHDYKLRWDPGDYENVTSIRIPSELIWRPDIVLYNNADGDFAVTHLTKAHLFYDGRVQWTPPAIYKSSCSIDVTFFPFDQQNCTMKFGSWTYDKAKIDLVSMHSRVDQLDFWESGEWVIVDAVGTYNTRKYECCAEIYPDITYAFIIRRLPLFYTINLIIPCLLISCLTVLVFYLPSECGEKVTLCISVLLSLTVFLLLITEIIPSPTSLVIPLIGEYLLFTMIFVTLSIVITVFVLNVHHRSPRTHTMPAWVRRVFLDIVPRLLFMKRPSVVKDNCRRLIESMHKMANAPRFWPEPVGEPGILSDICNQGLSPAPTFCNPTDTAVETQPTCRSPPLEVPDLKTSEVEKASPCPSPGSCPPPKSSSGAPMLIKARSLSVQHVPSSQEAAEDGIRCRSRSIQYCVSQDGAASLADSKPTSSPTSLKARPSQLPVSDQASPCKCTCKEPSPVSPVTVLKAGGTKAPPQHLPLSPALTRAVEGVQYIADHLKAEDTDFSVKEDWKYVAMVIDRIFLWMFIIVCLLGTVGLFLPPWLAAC
T2 sequence (P12390 25-500): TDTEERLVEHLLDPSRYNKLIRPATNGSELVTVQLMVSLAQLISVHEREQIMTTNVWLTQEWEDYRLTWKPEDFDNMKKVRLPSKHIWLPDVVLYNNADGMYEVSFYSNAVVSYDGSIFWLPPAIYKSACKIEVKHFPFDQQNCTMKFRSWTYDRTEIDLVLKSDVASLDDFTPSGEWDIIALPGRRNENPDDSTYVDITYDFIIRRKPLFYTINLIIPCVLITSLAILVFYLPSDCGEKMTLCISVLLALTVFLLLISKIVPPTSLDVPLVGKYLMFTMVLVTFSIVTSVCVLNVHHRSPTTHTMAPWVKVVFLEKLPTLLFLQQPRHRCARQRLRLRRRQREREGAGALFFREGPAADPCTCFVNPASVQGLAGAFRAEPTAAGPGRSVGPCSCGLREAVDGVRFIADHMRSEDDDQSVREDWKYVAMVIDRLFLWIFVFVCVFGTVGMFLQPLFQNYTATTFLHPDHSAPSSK
T1 sequence (Q05941 23-502): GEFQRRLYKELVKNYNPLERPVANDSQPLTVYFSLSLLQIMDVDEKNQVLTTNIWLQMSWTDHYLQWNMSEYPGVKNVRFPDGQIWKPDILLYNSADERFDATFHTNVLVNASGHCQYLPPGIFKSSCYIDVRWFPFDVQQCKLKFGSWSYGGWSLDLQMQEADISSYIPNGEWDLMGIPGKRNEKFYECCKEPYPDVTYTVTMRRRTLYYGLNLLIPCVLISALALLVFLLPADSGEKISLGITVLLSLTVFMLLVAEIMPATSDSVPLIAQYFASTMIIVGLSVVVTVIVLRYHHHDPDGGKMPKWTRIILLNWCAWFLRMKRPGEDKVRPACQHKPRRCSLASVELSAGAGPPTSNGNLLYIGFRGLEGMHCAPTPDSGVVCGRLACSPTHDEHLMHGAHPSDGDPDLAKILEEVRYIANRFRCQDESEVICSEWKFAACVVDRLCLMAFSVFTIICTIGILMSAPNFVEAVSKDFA

On to `CCCCc1ccc(CCCC[n+]2ccc(C)cc2)cc1`, for which the inhibition at 0.1 µM in assay [1] stood at 0%; in assay [2], 58%; in assay [3] it was 5%.
Turning to `CCCCc1ccc(C#CCC[n+]2ccc3c(c2)CCCC3)cc1`, the inhibition constant (Ki) in assay [1] (full concentration effect, 2.5 nM [^3H]MLA (footnote)) was 3.7 µM; in assay [3] (full concentration effect) it was > 100 µM. The same compound displayed an inhibition at 0.1 µM in assay [2] of 70%.
Turning to `C(#Cc1ccc(-c2ccccc2)cc1)CCC[n+]1ccccc1`, the inhibition at 0.1 µM in assay [1] was determined as 6%; in assay [2] it was 34%; in assay [3], 2%.
With `Cc1ccc[n+](CCCCCCCCCCCCCc2cccnc2)c1`, the inhibition at 0.1 µM in assay [1] worked out at 2%; in assay [2] it was 31%; in assay [3], 0%.
Turning to `CCCCc1ccc(CCCC[n+]2cccc(CCCO)c2)cc1`, the inhibition at 0.1 µM in assay [1] was determined as 0%; in assay [2], 64%; in assay [3], 0%.
Turning to `Cc1cc[n+](CCCCCCCCc2ccccc2)c(C)c1`, the inhibition at 0.1 µM in assay [1] turned out to be 9%; in assay [2], 14%; in assay [3], 0%.
The corresponding values for `Cc1cc(C)c[n+](CCCCCCCCCCCCCc2cccnc2)c1` are 0%, 35% and 0%.
For `Cc1cc[n+](CCCC#Cc2ccc(-c3ccccc3)cc2)cc1`, in that order: 3%, 40% and 0%.
For `Cc1ccc[n+](CCCC#Cc2ccc(-c3ccccc3)cc2)c1`, in that order: 2%, 41% and 0%.
As to `C(#Cc1ccc(-c2ccccc2)cc1)CCC[n+]1cccc2ccccc21`, the inhibition at 0.1 µM amounted to 7% in assay [1], 23% in assay [2] and 1% in assay [3].
As for `Cc1cc[n+](CCCC#Cc2ccc(-c3ccccc3)cc2)c(C)c1`, the inhibition at 0.1 µM turned out to be 6% in assay [1], 5% in assay [2] and 2% in assay [3].
As to `CN1CCC[C@H]1c1ccc[n+](CCCC#Cc2ccc(-c3ccccc3)cc2)c1`, the figures for the inhibition at 0.1 µM in assay [1], in assay [2] and in assay [3] were 6%, 47% and 20%, respectively.

For orientation: inhibition means the percentage by which the read-out fell short of the control. The low end stands for little suppression, the high end for strong suppression. One may read the Ki as a dissociation constant, usually derived from enzyme kinetics or from competition with a known ligand.
